{
  "source": "patent US8252835B2",
  "about": "“Compounds and methods for treating estrogen receptor-related diseases” (Shenogen Pharma Group Ltd., priority 2006, dated 2012)",
  "key": {"breast cancer cells": {"tested_on": "breast cancer cells", "conditions": "background, literature (Liu 2005; Wang 2004; Ye 2005); cited from earlier work"}, "MCF7 cells [1]": {"tested_on": "MCF7 cells", "assay": "MCF7 colony formation", "format": "cell-based", "conditions": "zero to 25 μM, as concentration rose, 10 days, FIG. 5a"}, "MDA-MB-231 cells [2]": {"tested_on": "MDA-MB-231 cells", "assay": "MDA-MB-231 cells treated for a week, examined under microscope", "format": "cell-based", "conditions": "10 μM, one week, FIG. 3"}, "[3]": {"tested_on": "cervical cancer U14 cells", "assay": "Murine cervical cancer U14 tumors in ICR mice", "format": "in vivo", "conditions": "14 days, FIG. 15a", "description": "The original ICR mice containing cervical cancer U14 cell line were provided by the Institute of Materia Medica, Chinese Academy of Medical Sciences. Five ml of abdominal fluid was drawn from the lower abdomen of the mice. The fluid was diluted at the ratio of 1:5 with saline. 0.2 ml of the diluted abdominal fluid was injected subcutaneously at the right front limb and chest of female ICR mice (provided by the Division of Experimental Animals of the Medical School of Beijing University). After the implantation, the mice were treated right away with Icaritin, Tamoxifen and olive oil, respectively. Icaritin was given at three dosages. The high dosage was 0.7 mg per mouse per day (about 33 mg/kg/day). The medium dosage was 0.35 mg per mouse per day (about 16.5 mg/kg/day). The low dosage was 0.18 mg per mouse per day (about 8.25 mg/kg/day). […] Olive oil was used as a negative control wherein each mouse was fed with 0.1 ml of olive oil. […] Then the mice were sacrificed and the tumor tissues were dissected from the mice and weighed. Ten female ICR mice were used for each test compounds and dosages. Three parallel experiments were carried out. […] The tumor growth inhibition rate was calculated using the same formula as Example 11."}, "MDA-MB-231 cells [4]": {"tested_on": "MDA-MB-231 cells", "assay": "MDA-MB-231 colony formation, crystal violet staining", "format": "cell-based", "conditions": "10 days, FIG. 4"}, "[5]": {"tested_on": "human endometrial cancer Hec1A cells", "assay": "MTT assay of Hec1A cell growth", "format": "cell-based", "conditions": "24 hours", "description": "Human endometrial cancer Hec1A cells (ATCC No.: HTB-112™) were subseeded in a 96-well culture plate at a concentration of 5×10^3 cells/well and were cultured in DMEM containing high glucose medium (HyClone, SH30022.01B). […] The cells then were incubated with 0.5 mg/ml 3-(4,5-dimethylthiazol-2-yl)-2,5-diphenyltetrazolium bromide (MTT) for 4 hours at 37° C. wherein the MTT was reduced to insoluble purple formazan by the active mitochondrial reductase enzymes in the living cells. Then the excessive liquid MTT was removed from the reaction mixture. 150 μl of DMSO was added to dissolve the purple formazan into a colored solution. The optical density of the colored solution was measured at 490 nm using a microplate reader."}, "[6]": {"tested_on": "Tamoxifen resistant MCF7 cells (MCF7/TAM)", "assay": "Surviving cell count, Tamoxifen resistant MCF7 cells", "conditions": "two weeks, FIG. 6"}, "LnCap cells": {"tested_on": "LnCap cells", "assay": "LNCap prostate cancer surviving cell count", "format": "cell-based", "conditions": "two weeks, FIG. 10"}, "PC3 cells": {"tested_on": "PC3 cells", "assay": "PC3 prostate cancer surviving cell count", "format": "cell-based", "conditions": "two weeks, FIG. 10"}, "[7]": {"tested_on": "MDA-MB-231 cell xenografts", "assay": "MDA-MB-231 xenografts in nude mice, established tumors", "format": "in vivo", "conditions": "5 mg per mouse by gavage every other day for 30 days, FIG. 11", "description": "(§1) The vial was wrapped with aluminium foil and placed on a rocker at 37° C. for several hours. […] The Icaritin solution was administered to mice using the gavage technique. For gavaging, we used Animal Feeding Needles (Popper; cat No. 9921, size: 20GX1.1/2).\n(§2) Tumor formation was assayed in female athymic nude mice (6 weeks old, strain CDI nu/nu, Charles River Breeding Laboratory). MCF7 cells or MDA-MB-231 cells at the concentration of 1×10^7 cells in 200 μl Matrigel (BD Biosciences) were injected into the mice by the mammary fatpad injection. A group of 5 mice were injected with each type of breast cancer cells. […] Tumor disappearance was determined by palpation, and the sizes of tumors were also monitored by measuring two perpendicular diameters with vernier calipers every other day and photographed."}, "[8]": {"tested_on": "MCF7 cells over-expressing ER-α36 (MCF7/ER36)", "assay": "Surviving cell count, MCF7 cells over-expressing ER-α36", "format": "cell-based", "conditions": "two weeks, FIG. 6", "source_text": "MCF7 cells over-expressing ER-α36 were made by stably transfecting MCF cells with an ER-α36 expression vector. The ER-α36 expression vector was constructed by cloning a 1.1-kb cDNA fragment of ER-α36 from pBluescript plasmid into a mammalian expression vector pCB6+ as described before (Wang et al., 2005, BBRC, 336:1023-1027). The constructed ER-α36 expression vector contains the cytomegalovirus (CMV) early promoter. MCF7 cells were transfected with the ER-α36 expression vector using the FuGene6 transfection reagent (Roche Molecular Biochemicals). Forty-eight hours after transfection, the cells were re-plated and selected with 500 μg/ml of G418 (Invitrogen) for about two weeks until colonies appeared. The clones were then pooled and cultured to confirm the expression of ER-α36 by Western blot analysis."}, "MCF7 cell xenografts": {"tested_on": "MCF7 cell xenografts", "assay": "MCF7 xenografts in nude mice, established tumors", "format": "in vivo", "conditions": "5 mg per mouse by gavage every other day for 15 days, FIG. 12", "description": "as §1, §2"}, "[9]": {"tested_on": "human breast cancer BCAP-37 cells xenografts", "assay": "Human breast cancer BCAP-37 xenografts in nude mice", "format": "in vivo, BALB/c-nu mice", "conditions": "15 days, FIG. 14a", "source_text": "The original nude mice bearing BCAP-37 breast cancer were provided by the Institute of Materia Medica, Chinese Academy of Medical Sciences. Tumor tissues were taken from the mice and cut into small pieces. Several pieces of the tumor tissues were implanted into the armpit under the right front limb of female nude mice (provided by the Division of Experimental Animals of the Medical School of Beijing University). […] Starting on the seventh day, the mice were fed with Icaritin at three dosages. The high dosage was 0.7 mg per mouse per day (about 33 mg/kg/day). The medium dosage was 0.35 mg per mouse per day (about 16.5 mg/kg/day). The low dosage was 0.18 mg per mouse per day (about 8.25 mg/kg/day). […] Olive oil was used as a negative control wherein each mouse was fed with 0.1 ml of olive oil. […] Then the mice were sacrificed and the tumor tissues were dissected from the mice and weighed. Two parallel experiments were done for the tests. Ten female BALB/c-nu mice were used for each test compounds and each dosages for one of the two parallel experiment. Eight female BALB/c-nu mice were used for each test compounds and each dosages for the other parallel experiment. […] The effect of IC 163 on inhibiting breast cancer growth was tested in the same assay as described above. IC 163 was tested at the dosage of 0.7 mg per mouse per day (about 35 mg/kg/day). […] Olive oil was used as a negative control."}, "[10]": {"tested_on": "MDA-MB-231 cell xenografts", "assay": "MDA-MB-231 xenografts in nude mice, treatment right after implantation", "format": "in vivo", "conditions": "1 mg per mouse twice a week for 36 days, started right after injection, FIG. 13", "description": "Tumor formation was assayed in female athymic nude mice (6 weeks old, strain CDI nu/nu, Charles River Breeding Laboratory). MDA-MB-231 cells at the concentration of 1×10^7 cells in 200 μl Matrigel (BD Biosciences) were injected into the mice by the mammary fatpad injection. A group of 5 mice were injected with the breast cancer cells. The mice were treated with Icaritin right after the injection. […] Then the mice were sacrificed and the tumor tissues were dissected from the mice, photographed and weighed."}, "MCF7 cells [11]": {"tested_on": "MCF7 cells", "assay": "MCF7 surviving cell count (hemocytometer)", "conditions": "two weeks"}, "H226 Lung Cancer Cells": {"tested_on": "H226 Lung Cancer Cells", "assay": "H226 lung cancer surviving cell count", "format": "cell-based", "conditions": "two weeks, FIG. 10"}, "[12]": {"conditions": "high dosage 0.7 mg per mouse per day"}, "[13]": {"conditions": "low dosage 0.18 mg per mouse per day"}, "[14]": {"conditions": "medium dosage 0.35 mg per mouse per day"}},
  "data": [
    {"molecule": "COc1ccc(-c2oc3c(CC=C(C)C)c(O)cc(O)c3c(=O)c2O)cc1", "note": "[Icaritin]", "values": [
      {"measurement": "proliferation of breast cancer cells", "setting": "breast cancer cells", "result": "significantly increase"},
      {"measurement": "number of colonies of MCF7 cells", "setting": "MCF7 cells [1]", "result": "significantly reduced"},
      {"measurement": "cell morphology", "setting": "MDA-MB-231 cells [2]", "result": "features characteristic of apoptotic cells"},
      {"measurement": "number of surviving cells", "setting": "MDA-MB-231 cells [2]", "result": "dramatically reduced"},
      {"measurement": "tumor weight compared with negative control", "setting": "[3]; [12]", "result": "reduced tumor weights"},
      {"measurement": "tumor weight compared with negative control", "setting": "[3]; [13]", "result": "reduced tumor weights"},
      {"measurement": "tumor weight compared with negative control", "setting": "[3]; [14]", "result": "reduced tumor weights"},
      {"measurement": "numbers of colonies of MDA-MB-231 cells", "setting": "MDA-MB-231 cells [4]; 5 μM", "result": "decreased"},
      {"measurement": "numbers of colonies of MDA-MB-231 cells", "setting": "MDA-MB-231 cells [4]; 10 μM", "result": "reduced to near zero"},
      {"measurement": "effect on the growth of Hec1A cells", "setting": "[5]; 0 to 5 μM", "result": "significant inhibitory effect"},
      {"measurement": "optical density at 490 nm (MTT)", "setting": "[5]; increased concentrations 0 to 5 μM, FIG. 21", "result": "declined smoothly"},
      {"measurement": "growth of cells (numbers of survived cells)", "setting": "[6]; 5 μM", "result": "significantly inhibited"},
      {"measurement": "inhibition compared with MCF7 cells", "setting": "[6]; 5 μM", "result": "stronger"},
      {"measurement": "numbers of cells", "setting": "[6]; 10 μM", "result": "near zero"},
      {"measurement": "numbers of cells", "setting": "LnCap cells; 5 μM", "result": "decreased"},
      {"measurement": "numbers of cells", "setting": "LnCap cells; 10 μM", "result": "further reduced"},
      {"measurement": "numbers of cells", "setting": "PC3 cells; 5 μM", "result": "decreased"},
      {"measurement": "numbers of cells", "setting": "PC3 cells; 10 μM", "result": "further reduced"},
      {"measurement": "tumor size", "setting": "[7]", "result": "significant tumor size reduction"},
      {"measurement": "growth of cells (numbers of survived cells)", "setting": "[8]; 5 μM", "result": "significantly inhibited"},
      {"measurement": "inhibition compared with MCF7 cells", "setting": "[8]; 5 μM", "result": "stronger"},
      {"measurement": "numbers of cells", "setting": "[8]; 10 μM", "result": "near zero"},
      {"measurement": "tumor size", "setting": "MCF7 cell xenografts", "result": "significant tumor size reduction"},
      {"measurement": "tumor weight compared with negative controls", "setting": "[9]; [12]", "result": "reduced tumor weights"},
      {"measurement": "tumor weight compared with negative controls", "setting": "[9]; [13]", "result": "reduced tumor weights"},
      {"measurement": "tumor weight compared with negative controls", "setting": "[9]; [14]", "result": "reduced tumor weights"},
      {"measurement": "tumor size", "setting": "[10]", "result": "tumor size reduction"},
      {"measurement": "numbers of surviving MCF7 cells", "setting": "MCF7 cells [11]; 5 μM and up, FIG. 5b", "result": "significantly reduced"},
      {"measurement": "growth of cells (numbers of survived cells)", "setting": "MCF7 cells [11]; 5 μM, FIG. 6", "result": "significantly inhibited"},
      {"measurement": "numbers of cells", "setting": "MCF7 cells [11]; 10 μM, FIG. 6", "result": "near zero"},
      {"measurement": "numbers of cells", "setting": "H226 Lung Cancer Cells; 5 μM", "result": "decreased"},
      {"measurement": "numbers of cells", "setting": "H226 Lung Cancer Cells; 10 μM", "result": "further reduced"}
    ]}
  ]
}
